{
  "source": "paper PMC11887451",
  "about": "“Leveraging Immunogenic Cell Death to Enhance the Immune Response against Malignant Pleural Mesothelioma Tumors” (Journal of the American Chemical Society, 2025)",
  "system": "calreticulin (CRT) in AB12 cells",
  "assay": "CRT detection, flow cytometry",
  "format": "cell-based, mouse",
  "conditions": "AB12, 5 × IC50 (72 h), 120 min",
  "description": "page 23: concentrations for 100 min at 37 °C. After the treatment, the supernatant was collected in 2 mL microtubes, centrifuged (300 × g, 5 min) and the media was removed. The adherent cells were then trypsinized with 500 μL of trypsin at 37 °C for 5 min. Next, 1 mL of medium was added to neutralize trypsin and the resulting cell suspension was combined with the supernatant. The wells were washed with 200 μL of PBS, which was also combined with the supernatant. The combined solutions were centrifuged (300 × g, 5 min), and the resulting pellets were washed with PBS (2 × 1 mL) and resuspended in 200 μL of Annexin V binding buffer. […] Cell death was evaluated by flow cytometry using a CytoFLEX Flow Cytometer equipped with a 488 nm laser and a 638 nm laser (Beckman Coulter, Brea, CA, USA). The cells were excited by the 488 nm laser, and fluorescence emissions were detected at 525/40 nm for FITC (Annexin V) and at 610/20 nm for ECD (PI). […] The percentage of necrosis was determined by calculating the sum of cells in Q1 and Q2. […] Next, cells were incubated with CRT antibody conjugated with AlexaFluor S23 page 24: 488 (62304S, Cell Signaling Technology) at 4 °C overnight, washed twice with PBS, reconstituted in 500 µL of PBS and analyzed by flow cytometry using a CytoFLEX Flow Cytometer equipped with a 488 nm laser and a 638 nm laser (Beckman Coulter, Brea, CA, USA). […]",
  "data": [
    {"smiles": "Nc1nc2[nH]cc(CCc3ccc(C(=O)N[C@@H](CCC(=O)O)C(=O)O)cc3)c2c(=O)[nH]1", "note": "[Pemetrexed, pemetrexed, reference compound]", "values": [
      {"measurement": "CRT expression (in words)", "result": "no changes in CRT expression"}
    ]}
  ]
}
